Reference: the NIST ThermoML archive (doi:10.1021/je301347v)

Experiment: xn = mol fraction of the nth substance listed
Details: 101 kPa, Liquid, Voltage change across transformer (no electrode)

CCCC[n+]1cccc(C)c1.F[B-](F)(F)F [1-butyl-3-methylpyridinium tetrafluoroborate] + CCO
electrical conductivity [S/m]
Details	293.15 K	303.15 K	313.15 K	323.15 K
x1 = 0.0613	0.787	1.02	1.26	1.53
x1 = 0.0737	0.888	1.14	1.42	1.72
x1 = 0.0915	1.02	1.31	1.63	1.96
x1 = 0.1113	1.14	1.48	1.84	2.19
x1 = 0.1366	1.24	1.63	2.04	2.43
x1 = 0.167	1.4	1.81	2.22	2.68
x1 = 0.1985	1.47	1.92	2.36	2.81
x1 = 0.2393	1.52	1.97	2.4	2.89
x1 = 0.2811	1.5	1.96	2.4	2.89
x1 = 0.3174	1.41	1.85	2.31	2.85
x1 = 0.3652	1.32	1.76	2.24	2.76
x1 = 0.4385	1.19	1.61	2.11	2.54
x1 = 0.4652	1.09	1.49	1.92	2.45
x1 = 0.5281	0.934	1.28	1.68	2.21
x1 = 0.5747	0.823	1.17	1.56	2.04
x1 = 0.6938	0.51	0.77	1.15	1.63
x1 = 0.7799	0.37	0.56	0.891	1.33
x1 = 0.9102	0.215	0.36	0.59	0.903
x1 = 1	0.155	0.281	0.461	0.704

CCCC[n+]1cccc(C)c1.F[B-](F)(F)F [1-butyl-3-methylpyridinium tetrafluoroborate] + CO
electrical conductivity [S/m]
Details	293.15 K	303.15 K	313.15 K	323.15 K
x1 = 0.0337	2.29	2.71	3.11	3.5
x1 = 0.0438	2.45	2.89	3.34	3.8
x1 = 0.0479	2.66	3.12	3.6	4.09
x1 = 0.0567	2.9	3.41	3.96	4.53
x1 = 0.0699	3.17	3.85	4.49	5.1
x1 = 0.1142	3.33	3.98	4.66	5.38
x1 = 0.1504	3.37	4.06	4.74	5.5
x1 = 0.1734	3.31	4.01	4.74	5.52
x1 = 0.2236	3.11	3.8	4.55	5.34
x1 = 0.2696	2.78	3.44	4.15	4.89
x1 = 0.3345	2.43	3.08	3.77	4.49
x1 = 0.378	2.19	2.8	3.45	4.11
x1 = 0.4258	1.76	2.31	2.95	3.59
x1 = 0.5198	1.3	1.82	2.3	2.87
x1 = 0.61	0.944	1.32	1.78	2.27
x1 = 0.729	0.472	0.686	1.04	1.58
x1 = 0.8344	0.28	0.413	0.672	1.05
x1 = 0.9177	0.191	0.311	0.523	0.817
x1 = 1	0.155	0.281	0.461	0.704

CCCC[n+]1ccc(C)cc1.F[B-](F)(F)F [1-butyl-4-methylpyridinium tetrafluoroborate] + CCO
electrical conductivity [S/m]
Details	293.15 K	303.15 K	313.15 K	323.15 K
x1 = 0.0448	0.696	0.877	1.01	1.1
x1 = 0.0521	0.791	1.01	1.22	1.3
x1 = 0.0608	0.893	1.15	1.42	1.55
x1 = 0.0701	0.991	1.28	1.58	1.76
x1 = 0.0843	1.15	1.47	1.82	1.95
x1 = 0.1046	1.29	1.65	2.08	2.41
x1 = 0.1232	1.39	1.8	2.26	2.64
x1 = 0.1347	1.44	1.86	2.33	2.76
x1 = 0.1551	1.5	1.95	2.47	2.92
x1 = 0.1602	1.51	1.97	2.49	2.96
x1 = 0.2251	1.59	2.09	2.67	3.22
x1 = 0.247	1.59	2.09	2.68	3.26
x1 = 0.3371	1.52	2.02	2.61	3.22
x1 = 0.3512	1.5	2	2.59	3.22
x1 = 0.3799	1.45	1.95	2.52	3.17
x1 = 0.3856	1.44	1.94	2.52	3.16
x1 = 0.4126	1.4	1.88	2.46	3.1
x1 = 0.5649	1.1	1.37	2.01	2.63
x1 = 0.6798	0.851	1.02	1.61	2.16
x1 = 0.7941	0.601	0.696	1.2	1.68
x1 = 0.9258	0.305	0.38	0.717	1.06
x1 = 0.9963	0.154	0.242	0.459	0.74
x1 = 1	0.132	0.254	0.439	0.687

CCCC[n+]1ccc(C)cc1.F[B-](F)(F)F [1-butyl-4-methylpyridinium tetrafluoroborate] + CO
electrical conductivity [S/m]
Details	293.15 K	303.15 K	313.15 K	323.15 K
x1 = 0.0426	2.81	3.25	3.55	4.09
x1 = 0.0499	2.99	3.46	3.93	4.37
x1 = 0.0584	3.18	3.71	4.17	4.65
x1 = 0.0716	3.38	3.99	4.56	5.02
x1 = 0.0898	3.58	4.25	4.82	5.4
x1 = 0.1093	3.72	4.43	5.08	5.67
x1 = 0.1256	3.76	4.52	5.2	5.82
x1 = 0.1425	3.78	4.56	5.27	5.92
x1 = 0.2197	3.47	4.38	5.15	5.85
x1 = 0.2475	3.31	4.22	5	5.7
x1 = 0.305	3.13	3.84	4.61	5.27
x1 = 0.3465	2.81	3.53	4.27	4.9
x1 = 0.4593	2.18	2.68	3.3	3.83
x1 = 0.5657	1.42	1.93	2.47	2.85
x1 = 0.6744	0.993	1.28	1.71	1.99
x1 = 0.7908	0.565	0.761	1.12	1.29
x1 = 0.8788	0.341	0.487	0.78	0.925
x1 = 1	0.132	0.254	0.439	0.687

CCCC[n+]1ccccc1.F[B-](F)(F)F [1-butylpyridinium tetrafluoroborate] + CCO
electrical conductivity [S/m]
Details	303.15 K	313.15 K	323.15 K
x1 = 0.0353	0.785	1.02	1.32
x1 = 0.0417	0.863	1.18	1.38
x1 = 0.0455	1.06	1.27	1.54
x1 = 0.0461	1.04	1.29	1.54
x1 = 0.0551	1.15	1.48	1.72
x1 = 0.0564	1.24	1.5	1.83
x1 = 0.0634	1.44	1.64	2.22
x1 = 0.0735	1.43	1.82	2.12
x1 = 0.084	1.56	1.98	2.31
x1 = 0.1033	1.68	2.24	2.56
x1 = 0.1165	1.8	2.39	2.7
x1 = 0.1291	1.86	2.51	2.92
x1 = 0.1597	2.16	2.74	3.01
x1 = 0.1656	2.28	2.77	3.23
x1 = 0.2093	2.38	2.95	3.41
x1 = 0.2237	2.44	2.96	3.43
x1 = 0.2751	2.46	2.97	3.45
x1 = 0.3929	2.17	2.7	3.2
x1 = 0.4464	1.96	2.5	2.86
x1 = 0.5095	1.66	2.2	2.56
x1 = 0.617	1.2	1.77	2.17
x1 = 0.7008	0.884	1.43	1.71
x1 = 0.8158	0.566	1.03	1.28
x1 = 0.8973	0.436	0.821	1.04
x1 = 1	0.321	0.519	0.785
